The record followed here is patent publication US11555026B2, “AHR inhibitors and uses thereof” (Ikena Oncology, Inc., priority 2017, dated 2023).

In the assay the target is T1, AHR (UniProt P35869).
T1 sequence (P35869 1-848): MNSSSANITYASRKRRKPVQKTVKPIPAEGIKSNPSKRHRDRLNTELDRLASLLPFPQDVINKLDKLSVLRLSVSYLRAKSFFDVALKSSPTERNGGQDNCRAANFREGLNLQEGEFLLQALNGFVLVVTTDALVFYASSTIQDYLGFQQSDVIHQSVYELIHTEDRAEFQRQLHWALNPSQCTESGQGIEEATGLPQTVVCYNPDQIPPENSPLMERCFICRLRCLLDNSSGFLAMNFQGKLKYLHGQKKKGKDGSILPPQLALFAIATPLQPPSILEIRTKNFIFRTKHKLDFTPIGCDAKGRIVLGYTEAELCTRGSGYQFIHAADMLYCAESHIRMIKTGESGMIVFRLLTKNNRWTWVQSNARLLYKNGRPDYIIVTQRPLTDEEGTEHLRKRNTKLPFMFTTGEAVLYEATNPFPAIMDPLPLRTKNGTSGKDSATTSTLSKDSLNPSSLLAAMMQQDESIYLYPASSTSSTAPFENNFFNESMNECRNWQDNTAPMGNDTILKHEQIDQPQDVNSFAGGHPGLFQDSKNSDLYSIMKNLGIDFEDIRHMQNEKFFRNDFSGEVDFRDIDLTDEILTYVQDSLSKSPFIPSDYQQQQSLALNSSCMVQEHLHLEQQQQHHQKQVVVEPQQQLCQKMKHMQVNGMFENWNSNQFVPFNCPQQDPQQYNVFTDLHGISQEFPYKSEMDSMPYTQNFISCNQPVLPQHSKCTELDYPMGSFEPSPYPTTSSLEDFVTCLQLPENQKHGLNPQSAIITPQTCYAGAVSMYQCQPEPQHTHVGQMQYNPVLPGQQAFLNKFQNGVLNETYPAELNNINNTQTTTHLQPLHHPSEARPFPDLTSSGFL
Description: DRE-Luciferase Reporter Assay (Alternate Method, Example 1B). In kind it is cell-based. Also on record: IC50; other: alternate method: compound and agonist added at plating or after overnight incubation; murine (Hepa1-6, He). As to conditions: alternate method: compound and agonist added at plating or after overnight incubation; murine (Hepa1-6, Hepa-1c1c7) or human (HepG2) DRE-luciferase reporter cells, cell line used not stated. How it is done: AHR binds to Dioxin Responsive Elements (DRE) upstream of genes that it activates. One measure of AHR activity is activation of a reporter gene, such as luciferase, downstream of one or multiple DRE elements. Luciferase activity will reflect activation and inhibition of AHR in the cells expressing his reporter.
Murine Hepa1-6 or Hepa-1c1c7 or other murine cell line with a DRE-luciferase reporter either stably or transiently transfected were plated in media in plates (96-well, 384-well or other plates) and incubated overnight at 37° C. in a CO2 incubator or compound and agonist were added at the time of plating. Likewise, human HepG2 or other human cell line with a DRE-luciferase reporter either stably or transiently transfected were plated in media in plates (96-well, 384-well or other plates) and incubated overnight at 37° C. in a CO2 incubator or compound and agonist were added at the time of plating.
At the time that cells are plated or following incubation overnight, an AHR activating ligand, such as TCDD, kynurenine, ITE (2-(1H-indole-3-ylcarbonyl)-4-thiazolecarboxylic methyl ester), VAF347, BNF (beta-naphthoflavone), FICZ (6-formylindolo(3,2-b) carbazole or other AHR ligands, was added with or without AHR antagonist.
Cells were incubated for 4, 15 or 24 hours or another time point and then lysed for determination of luciferase activity as a read-out of the AHR activation or inhibition. Luciferase was measured with a commercial kit such as the Promega Luciferase kit or any kit or reagents that provide the luciferin substrate for measuring luciferase activity. The level of luciferase with only activating ligand added was the maximum signal while the luciferase with no ligand was the minimum signal. IC50 values were determined as the concentration which inhibits half of the luciferase activity.
`Cn1nccc1C(=O)Nc1ccc2cc(-c3nccs3)cnc2c1` [I-44, 2-Methyl-N-(3-thiazol-2-yl-7-quinolyl)pyrazole-3-carboxamide]: the half-maximal inhibitory concentration (IC50) was below 500 nM.

`Cn1nccc1C(=O)Nc1ccc2cc(-c3ncco3)cnc2c1` [I-45, 2-Methyl-N-(3-oxazol-2-yl-7-quinolyl)pyrazole-3-carboxamide] displayed an IC50 of 500 to 1000 nM.

In turn, `Cn1nccc1C(=O)Nc1ccc2cc(-c3cccs3)cnc2c1` [I-46, 2-Methyl-N-[3-(2-thienyl)-7-quinolyl]pyrazole-3-carboxamide] came in with an IC50 below 500 nM.

As to `CC(=O)Nc1ccc2cc(-c3ccccc3)cnc2c1` [I-47, N-(3-Phenyl-7-quinolyl)acetamide], the 50% inhibitory concentration (IC50) was above 1500 nM.

As to `Cn1nccc1C(=O)Nc1ccc2cc(-c3ccsc3)cnc2c1` [I-48, 2-Methyl-N-[3-(3-thienyl)-7-quinolyl]pyrazole-3-carboxamide], the IC50 was below 500 nM.

`Cn1nccc1C(=O)Nc1ccc2cc(C3CCCCC3)cnc2c1` [I-49, N-(3-Cyclohexyl-7-quinolyl)-2-methyl-pyrazole-3-carboxamide] had an IC50 above 1500 nM.

Consider `Cn1nccc1C(=O)Nc1ccc2cccnc2c1` [I-50, 2-Methyl-N-(7-quinolyl)pyrazole-3-carboxamide], for which the IC50 is above 1500 nM.

`Cc1ccccc1-c1cnc2cc(NC(=O)c3ccnn3C)ccc2c1` [I-51, 2-Methyl-N-[3-(o-tolyl)-7-quinolyl]pyrazole-3-carboxamide] came in with an IC50 below 500 nM.

In the case of `Cc1ccccc1-c1ccc2cc(NC(=O)c3ccnn3C)ccc2c1` [I-52, 2-Methyl-N-[6-(o-tolyl)-2-naphthyl]pyrazole-3-carboxamide], the IC50 is above 1500 nM.

The compound `Cc1cc(C#Cc2cccc3c2OCO3)ccc1NC(=O)c1ccnn1C` [I-53, N-[4-[2-(1,3-Benzodioxol-4-yl)ethynyl]-2-methyl-phenyl]-2-methyl-pyrazole-3-carboxamide] registered an IC50 above 1500 nM.

In turn, `Cc1cc(C#CC2CCCCC2)ccc1NC(=O)c1ccnn1C` [I-54, N-[4-(2-Cyclohexylethynyl)-2-methyl-phenyl]-2-methyl-pyrazole-3-carboxamide] displayed an IC50 above 1500 nM.

In the case of `Cc1cc(C#Cc2ccncc2)ccc1NC(=O)c1ccnn1C` [I-55, 2-Methyl-N-[2-methyl-4-[2-(4-pyridyl)ethynyl]phenyl]pyrazole-3-carboxamide], the IC50 is above 1500 nM.

For the compound `Cc1cc(C#Cc2cccnc2)ccc1NC(=O)c1ccnn1C` [I-56, 2-Methyl-N-[2-methyl-4-[2-(3-pyridyl)ethynyl]phenyl]pyrazole-3-carboxamide], the IC50 is above 1500 nM.

Compound `Cc1cc(C#CC2CCNCC2)ccc1NC(=O)c1ccnn1C` [I-57, 2-Methyl-N-[2-methyl-4-[2-(4-piperidyl)ethynyl]phenyl]pyrazole-3-carboxamide] returned an IC50 above 1500 nM.

`Cc1cc(C#Cc2ccccn2)ccc1NC(=O)c1ccnn1C` [I-58, 2-Methyl-N-[2-methyl-4-[2-(2-pyridyl)ethynyl]phenyl]pyrazole-3-carboxamide] came in with an IC50 above 1500 nM.

As for `Cn1nccc1C(=O)Nc1ccc(C#Cc2ccccc2)c2c1OCO2` [I-59, 2-Methyl-N-[7-(2-phenylethynyl)-1,3-benzodioxol-4-yl]pyrazole-3-carboxamide], the half-maximal inhibitory concentration (IC50) is above 1500 nM.

Consider `COc1cc(C#Cc2ccccc2)ccc1NC(=O)c1ccnn1C` [I-60, N-[2-Methoxy-4-(2-phenylethynyl)phenyl]-2-methyl-pyrazole-3-carboxamide], for which the IC50 is above 1500 nM.

Regarding `CC#Cc1ccc(NC(=O)c2ccnn2C)c(C)c1` [I-61, 2-methyl-N-(2-methyl-4-prop-1-ynyl-phenyl)pyrazole-3-carboxamide], the IC50 is above 1500 nM.

For the compound `Cn1nccc1C(=O)Nc1ccc(C#Cc2ccccc2)cc1C(F)(F)F` [I-62], the IC50 was above 1500 nM.

In the case of `Cn1nccc1C(=O)Nc1ccc(C#Cc2ccccc2)cc1` [I-63, 2-Methyl-N-[4-(2-phenylethynyl)phenyl]pyrazole-3-carboxamide], the half-inhibitory concentration (IC50) was above 1500 nM.

In the case of `COc1ccccc1C#Cc1ccc(NC(=O)c2ccnn2C)c(C)c1` [I-64], the IC50 is above 1500 nM.

As to `Cn1nccc1C(=O)Nc1ccc2nc(-c3ccccc3)cnc2c1` [I-65], the IC50 lay in the range of 500 to 1000 nM.

In turn, `Cc1cc(/C=C/c2ccccc2)ccc1N(C)C(=O)c1ccnn1C` [I-66] showed an IC50 of 500 to 1000 nM.

Compound `Cn1nccc1C(=O)Nc1cnc2cc(-c3ccccc3)ccc2c1` [I-67] registered an IC50 of 500 to 1000 nM.

`Cc1c(NC(=O)c2ccnn2C)ccc2nc(-c3ccccc3)ccc12` [I-68] displayed a half-maximal inhibitory concentration (IC50) above 1500 nM.

The compound `Cc1ccccc1-c1cnc2ccc(NC(=O)c3ccnn3C)c(C)c2c1` [I-69] gave an IC50 above 1500 nM.

Regarding `Cn1nccc1C(=O)Nc1ccc2cc(-c3ccccc3)cnc2c1` [I-70], the concentration for half-maximal inhibition (IC50) is below 500 nM.

Take `Cc1cc(C2CC2c2ccccc2)ccc1NC(=O)c1ccnn1C` (stereo not shown) [I-71]: the IC50 was above 1500 nM.

In turn, `Cc1ccccc1-c1ccc2c(C)c(NC(=O)c3ccnn3C)ccc2n1` [I-72] displayed an IC50 above 1500 nM.

Turning to `Cc1ccccc1/C=C/c1ccc(C(=O)Nc2ccnn2C)c(C)c1` [I-73], the IC50 was above 1500 nM.

Compound `Cc1cc(/N=N/c2cccc3cccnc23)ccc1NC(=O)c1ccnn1C` [I-74] had an IC50 above 1500 nM.

`Cc1cc(/N=N/c2cccc3ccccc23)ccc1NC(=O)c1ccnn1C` [I-75] gave a half-maximal inhibitory concentration (IC50) of 500 to 1000 nM.

As for `CC(C)n1nccc1C(=O)Nc1ccc2cc(-c3ccccc3)cnc2c1` [I-76, 2-Isopropyl-N-(3-phenyl-7-quinolyl)pyrazole-3-carboxamide], the IC50 was above 1500 nM.

In the case of `Cn1nccc1C(=O)Nc1ccc2c(=O)n(-c3ccccc3)cnc2c1` [I-77, 2-Methyl-N-(4-oxo-3-phenyl-quinazolin-7-yl)pyrazole-3-carboxamide], the IC50 is above 1500 nM.

The compound `O=C(Nc1ccc2cc(-c3ccccc3)cnc2c1)c1ccn[nH]1` [I-78, N-(3-Phenyl-7-quinolyl)-1H-pyrazole-5-carboxamide] returned an IC50 of 500 to 1000 nM.

For the compound `Cn1cncc1C(=O)Nc1ccc2cc(-c3ccccc3)cnc2c1` [I-79, 3-Methyl-N-(3-phenyl-7-quinolyl)imidazole-4-carboxamide], the IC50 is above 1500 nM.

As for `Cn1nccc1C(=O)Nc1ccc2cc(-c3ccc(N4CCOCC4)cc3)cnc2c1` [I-80, 2-Methyl-N-[3-(4-morpholinophenyl)-7-quinolyl]pyrazole-3-carboxamide], the 50% inhibitory concentration (IC50) is above 1500 nM.

`Cn1nccc1C(=O)Nc1ccc2cc(-c3ccccc3O)cnc2c1` [I-81, N-[3-(2-Hydroxyphenyl)-7-quinolyl]-2-methyl-pyrazole-3-carboxamide]: the concentration for half-maximal inhibition (IC50) lay within 1000 to 1500 nM.

`Cn1nccc1C(=O)Nc1ccc2cc(-c3cccc(O)c3)cnc2c1` [I-82, N-[3-(3-Hydroxyphenyl)-7-quinolyl]-2-methyl-pyrazole-3-carboxamide] came in with an IC50 of 1000 to 1500 nM.

As for `Cn1nccc1C(=O)Nc1ccc2cc(-c3ccccc3N3CCOCC3)cnc2c1` [I-83, 2-Methyl-N-[3-(2-morpholinophenyl)-7-quinolyl]pyrazole-3-carboxamide], the IC50 was above 1500 nM.

`Cn1nccc1C(=O)Nc1ccc2cc(-c3cccc(C(F)(F)F)c3)cnc2c1` [I-84, 2-Methyl-N-[3-[3-(trifluoromethyl)phenyl]-7-quinolyl]pyrazole-3-carboxamide] registered an IC50 below 500 nM.

With `Cn1nccc1C(=O)Nc1ccc2cc(-c3cccc(N4CCOCC4)c3)cnc2c1` [I-85, 2-Methyl-N-[3-(3-morpholinophenyl)-7-quinolyl]pyrazole-3-carboxamide], the half-inhibitory concentration (IC50) was above 1500 nM.

`Cn1nccc1C(=O)Nc1ccc2cc(-c3ccc(O)cc3)cnc2c1` [I-86, N-[3-(4-Hydroxyphenyl)-7-quinolyl]-2-methyl-pyrazole-3-carboxamide]: the IC50 was above 1500 nM.

By IC50 is commonly meant the concentration that inhibits the measured activity by half. Read a high IC50 as lower potency.
